Data taken from paper PMC8881610 (Nature Communications, 2022).
Like-named read-outs stand apart in the source and are kept apart here. Where a SMILES comes first, the peptide text is derived from it. [ ]: non-standard residue; d: D form. Aib = CC(C)(N)C(=O)O

Legend:
GLP-1R [1] = biological target: T1, GLP-1R (Homo sapiens, UniProt P43220); test: Whole-cell binding assay, competition with 125I-GLP-1(7-36)NH2; design: Flag; expressed in transfected cells; conditions: GLP-1R, 0.1% casein or 0.1% BSA
T1 sequence (P43220 24-463): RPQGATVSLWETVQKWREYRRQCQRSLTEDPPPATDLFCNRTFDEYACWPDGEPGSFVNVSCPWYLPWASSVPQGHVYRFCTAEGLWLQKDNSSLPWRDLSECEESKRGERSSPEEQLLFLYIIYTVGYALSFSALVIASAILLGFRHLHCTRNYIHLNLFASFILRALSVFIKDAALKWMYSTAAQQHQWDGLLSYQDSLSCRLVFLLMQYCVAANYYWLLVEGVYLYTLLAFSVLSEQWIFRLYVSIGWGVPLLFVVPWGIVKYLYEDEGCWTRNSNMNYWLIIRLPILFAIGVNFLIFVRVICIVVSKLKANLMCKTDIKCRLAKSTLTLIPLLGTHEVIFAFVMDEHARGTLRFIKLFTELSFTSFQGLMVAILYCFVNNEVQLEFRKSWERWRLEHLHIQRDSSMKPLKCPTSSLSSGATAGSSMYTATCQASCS
Method: (§1) Human embryonic kidney 293 cells containing SV40 large T-antigen (HEK293T) were cultured in DMEM (Gibco) supplemented with 10% (v/v) fetal bovine serum (FBS, Gibco), 1 mM sodium pyruvate (Gibco) and 100 units/mL penicillin and 100 μg/mL streptomycin at 37 °C in 5% CO2. Chinese hamster ovary (CHO-K1) cells were cultured in F-12 (Gibco) containing 10% FBS, 100 units/mL penicillin and 100 μg/mL streptomycin at 37 °C in 5% CO2. For cAMP and receptor expression assays, HEK293T cells were seeded into 6-well cell culture plates at a density of 7 × 10^5 cells per well. After overnight incubation, cells were transfected with GIPR, GLP-1R or GCGR construct using Lipofectamine 2000 or Lipofectamine 3000 transfection reagent (Invitrogen). For whole-cell binding assay, CHO-K1 cells were seeded into 96-well fibronectin-treated cell culture plates at a density of 3 × 10^4 cells per well. After overnight incubation, cells were transfected with GIPR, GLP-1R or GCGR construct using Lipofectamine 2000 transfection reagent (Invitrogen). Following 24 h culturing, the transfected cells were ready for use.
(§2) For GLP-1R and GCGR, CHO-K1 cells (30,000 cells/well) were seeded into Isoplate-96 plates and incubated for 24 h at 37 °C in 5% CO2. The WT or mutant constructs were transiently transfected using Lipofectamine 2000 transfection reagent as previous described. They were then washed twice using F-12 with 0.1% BSA or 0.1% casein, 33 mM HEPES, and incubated for 2 h at 37 °C. […] Cells were washed three times with ice-cold PBS and lysed in PBS with 1% Triton X-100, 20 mM Tris-HCl. After addition of scintillation cocktail (PerkinElmer), radioactivity (CPM) was counted on a MicroBeta^2 microplate counter (PerkinElmer). Data were normalized to the WT response and analyzed using three-parameter logistic equation.

GLP-1R [2] = biological target: T1, GLP-1R; test: cAMP accumulation assay, GLP-1R WT, mutant or modified constructs; format: cell-based; design: Flag; expressed in transfected cells; host or cells: HEK293T; conditions: for Emax: HEK-293T, read-out: cAMP accumulation Emax
Method: as §1
The human GLP-1R was modified with its native signal sequence (M1-P23) replaced by the HA signal peptide to facilitate receptor expression. To obtain a GLP-1R–Gs complex with good homogeneity and stability, we used the NanoBiT tethering strategy, in which the C terminus of GLP-1R was directly attached to LgBiT subunit followed by a TEV protease cleavage site and a double MBP tag. […] The constructs were cloned into both pcDNA3.1 and pFastBac vectors for functional assays in mammalian cells and protein expression in insect cells, respectively. Other constructs including the full-length and various mutants of human GLP-1R were cloned into pcDNA3.1 vector for cAMP accumulation and whole-cell binding assays.
(§3) For GIPR, GLP-1R and GCGR, multi-targeting agonist stimulated cAMP accumulation was measured by a LANCE Ultra cAMP kit (PerkinElmer). After 24 h culture, the transfected cells were seeded into 384-well microtiter plates at a density of 3,000 cells per well in HBSS supplemented with 5 mM HEPES, 0.1% (w/v) BSA or 0.1% (w/v) casein and 0.5 mM 3-isobutyl-1-methylxanthine. The cells were stimulated with different concentrations of peptide agonists for 40 min at RT. Eu-cAMP tracer and ULight^TM-anti-cAMP were then diluted by cAMP detection buffer and added to the plates separately to terminate the reaction. Plates were incubated at RT for 1 h and the fluorescence intensity measured at 620 nm and […] by an EnVision multilabel plate reader (PerkinElmer).

GCGR = GCGR (Homo sapiens, UniProt P47871); test: Whole-cell binding assay, competition with 125I-GCG; design: V5 (C); 6×His (C); expressed in transfected cells; host or cells: CHO-K1; conditions: GCGR WT, CHO-K1
Sequence of GCGR (P47871 26-477): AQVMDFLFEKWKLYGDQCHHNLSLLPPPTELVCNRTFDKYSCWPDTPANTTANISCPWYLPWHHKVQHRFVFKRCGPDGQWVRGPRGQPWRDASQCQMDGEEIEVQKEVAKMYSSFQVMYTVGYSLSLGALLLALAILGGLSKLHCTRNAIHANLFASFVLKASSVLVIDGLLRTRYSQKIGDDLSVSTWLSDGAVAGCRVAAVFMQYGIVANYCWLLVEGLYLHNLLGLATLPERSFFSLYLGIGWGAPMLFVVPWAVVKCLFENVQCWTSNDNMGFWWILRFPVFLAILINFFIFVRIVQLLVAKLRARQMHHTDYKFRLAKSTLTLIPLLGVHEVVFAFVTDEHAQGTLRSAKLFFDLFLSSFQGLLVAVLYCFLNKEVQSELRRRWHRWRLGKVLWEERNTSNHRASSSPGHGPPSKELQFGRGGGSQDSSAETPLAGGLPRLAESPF
Method: as §1, §2

GIPR = biological target: T2, GIPR (Homo sapiens, UniProt P48546); test: cAMP accumulation assay (LANCE Ultra cAMP kit), GIPR WT, mutant or modified constructs; format: cell-based; design: acylated tirzepatide to the full-length or modified; Flag; expressed in transfected cells; host or cells: HEK293T; conditions: for Emax: HEK-293T, GIPR WT, HEK293T, read-out: cAMP accumulation Emax
T2 sequence (P48546 22-466): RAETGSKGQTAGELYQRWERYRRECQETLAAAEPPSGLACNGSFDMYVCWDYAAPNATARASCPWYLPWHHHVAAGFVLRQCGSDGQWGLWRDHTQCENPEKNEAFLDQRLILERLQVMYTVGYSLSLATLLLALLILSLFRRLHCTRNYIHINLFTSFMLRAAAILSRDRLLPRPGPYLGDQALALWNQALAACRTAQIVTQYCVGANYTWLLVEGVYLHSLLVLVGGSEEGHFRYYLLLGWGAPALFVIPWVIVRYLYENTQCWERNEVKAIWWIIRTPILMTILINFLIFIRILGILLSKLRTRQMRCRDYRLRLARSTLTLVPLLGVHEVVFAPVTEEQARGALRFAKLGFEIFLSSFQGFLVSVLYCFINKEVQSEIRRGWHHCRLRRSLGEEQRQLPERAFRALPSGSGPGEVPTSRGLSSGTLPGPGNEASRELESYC
Method: as §1
A BRIL fusion protein was added at the N-terminal of the ECD with a TEV protease site and 2GSA linker between them. C-terminal 45 amino acids (Q422-C466) of the receptor were truncated. LgBiT was added at the end of helix 8 with a 15-amino acid (15AA) polypeptide linker in between, followed by a TEV protease cleavage site and an OMBP-MBP tag. […] The construct and various mutants of human GIPR were cloned into pcDNA3.1 vector for cAMP accumulation and whole-cell binding assays.
as §3

Question: Which results are given for `CC(C)C[C@H](NC(=O)[C@H](CC(C)C)NC(=O)[C@H](Cc1c[nH]c2ccccc12)NC(=O)[C@H](CCC(N)=O)NC(=O)[C@@H](NC(=O)[C@H](Cc1ccccc1)NC(=O)[C@H](CC(=O)O)NC(=O)[C@H](CCC(N)=O)NC(=O)[C@H](C)NC(=O)[C@H](C)NC(=O)[C@H](CCCNC(=N)N)NC(=O)[C@H](CCC(=O)O)NC(=O)[C@H](CC(=O)O)NC(=O)[C@H](CC(C)C)NC(=O)[C@H](Cc1ccc(O)cc1)NC(=O)[C@H](CCCCN)NC(=O)[C@H](CO)NC(=O)[C@H](CCCCN)NC(=O)[C@H](CC(=O)O)NC(=O)[C@H](CO)NC(=O)[C@@H](NC(=O)[C@H](Cc1ccccc1)NC(=O)[C@@H](NC(=O)CNC(=O)[C@H](CCC(N)=O)NC(=O)C(C)(C)NC(=O)[C@@H](N)Cc1c[nH]cn1)[C@@H](C)O)[C@@H](C)O)C(C)C)C(=O)N[C@@H](CC(=O)O)C(=O)NCC(=O)NCC(=O)N1CCC[C@H]1C(=O)N[C@@H](CO)C(=O)N[C@@H](CO)C(=O)NCC(=O)N[C@@H](C)C(=O)N1CCC[C@H]1C(=O)N1CCC[C@H]1C(=O)N1CCC[C@H]1C(=O)N[C@@H](CO)C(N)=O` [Non-lipidated peptide 20] (H-H[Aib]QGTFTSDKSKYLDERAAQDFVQWLLDGGPSSGAPPPS-NH2; N-terminus and C-terminus assumed)?
Answer: decrease of binding ability (IC50) vs peptide 20 (GLP-1R [1]): 3- to 17 fold; EC50 (GLP-1R [2]; GLP-1R WT, 0.1% BSA, HEK293T, read-out: cAMP accumulation pEC50 (converted)): 2.88 pM; influence on cAMP accumulation vs peptide 20 (GLP-1R [2]; GLP-1R, 0.1% BSA): inappreciably influenced; Emax (GLP-1R [2]; GLP-1R WT, 0.1% BSA, HEK293T): 99.7 ± 1.41%; Emax (GLP-1R [2]; GLP-1R WT, 0.1% casein, HEK293T): 99.2 ± 1.39%; binding Span (GCGR; 0.1% BSA): N.B.; binding pIC50 (GCGR; 0.1% BSA): N.B.; binding Span (GCGR; 0.1% casein): N.B.; binding pIC50 (GCGR; 0.1% casein): N.B.; reduction of cAMP accumulation vs peptide 20 (GIPR; GIPR, 0.1% BSA): 1,288 fold; EC50 for cAMP accumulation relative to peptide 20 (GIPR; GIPR, 0.1% casein): −871 fold; Emax (GIPR; 0.1% BSA): 99.4 ± 6.44%; Emax (GIPR; 0.1% casein): 88.5 ± 6.52%
